# Measured values reported in patent publication US20170056367A1, “PHARMACEUTICAL COMPOSITIONS FOR INHIBITING THE OSTEOCLAST DIFFERENTIATION COMPRISING EUPATILIN” (OsteoNeuroGen CO., LTD, priority 2015, published 2017).
# Legend:
# [1] = system: human peripheral blood mononucleated cells (PBMC); test: Differentiation of human PBMC into osteoclasts; type: cell-based; settings: 50 μM, FIG. 5
# From the text: Effects of eupatilin on the differentiation of human PBMC into osteoclasts were observed.
# [2] = system: IkB, Akt, and GSK3b; test: Phosphorylation of IkB, Akt and GSK3b during differentiation of MBMC into osteoclasts (gel electrophoresis); type: cell-based, mouse; settings: compared to control groups, FIG. 3A
# [3] = system: LPS-induced osteoporosis mouse models; test: LPS-induced osteoporosis model; type: in vivo
# [4] = system: osteoclasts; test: RANKL-mediated bone resorption measured using dentin; type: cell-based
# Procedure: Effects of eupatilin on RANKL-mediated bone-resorption were measured using dentin.
# [5] = system: GSK3b; test: Osteoclast formation upon overexpression of GSK3b; type: cell-based; settings: FIGS. 4A and 4B
# [6] = system: Ovariectomized mice (OVX); test: Ovariectomized mice (OVX) model of menopausal osteoporosis; type: in vivo, mouse; settings: 50 μM eupatilin, FIG. 8
# [7] = system: mouse bone marrow cells (MBMC); test: Differentiation of mouse bone marrow cells (MBMC) into osteoclasts with M-CSF and RANKL; type: cell-based
# Procedure: Incubation with M-CSF (macrophage-colony stimulating factor) and RANK (receptor activator of NFκB) ligand (RANKL) induced mouse bone marrow cells (MBMC) to differentiate into osteoclasts during which eupatilin was used at various concentrations under monitoring.
# [8] = system: RANK-mediated NF-kB activation; test: NF-kB-luciferase assay; type: cell-based; settings: FIG. 3D
# Procedure: Retroviral overexpression of catalytically active IKKb or Akt induced partial formation of TRP^+ osteoclasts (FIGS. 3B and 3C). An NF-kB-luciferase assay was conducted to examine whether the RANK-mediated NF-kB activation was modulated by eupatilin.
# [9] = system: TRAP, OSCAR, Integrin av, DC-STAMP, integrin b3, and OC-STAMP; test: Osteoclast differentiation marker gene levels by real-time PCR; type: cell-based, mouse; settings: 50 μM eupatilin, MBMC differentiation, FIG. 2
# Procedure: During the differentiation of MBMC into osteoclasts in the presence of 50 μM eupatilin, the levels of osteoclast differentiation marker genes were measured by real-time PCR.
# [10] = system: mouse bone marrow cells (MBMC); test: Cytotoxicity of eupatilin (FIG. 1D); type: cell-based; settings: at the concentration (50 μM)
# [11] = system: Osteoblasts differentiated from mesenchymal stem cells; test: ALP activity of osteoblasts differentiated from mesenchymal stem cells; type: cell-based, mouse; settings: FIG. 9
# Procedure: Osteoblasts differentiated from mesenchymal stem cells were measured for ALP activity in the presence of eupatilin.
smiles,measurement,setting,value
"COc1ccc(-c2cc(=O)c3c(O)c(OC)c(O)cc3o2)cc1OC [eupatilin, 5,7-dihydroxy-3,4,6-trimethoxyflavone]","expression of c-Fos, NFATc1, p-Akt, p-GSK3b, and p-IkB",[1],significantly reduce
same,formation of TRP^+ osteoclasts,[1],significantly reduce
same,"phosphorylation levels of IkB, Akt, and GSK3b",[2],significantly reduced
same,LPS-induced osteoporosis (bone density by CT),"[3]; 50 μM eupatilin, LPS intraperitoneally, FIG. 7A",significantly reduced
same,H&E and TRAP staining,"[3]; LPS model, bottom panel of FIG. 7",promote osteanagenesis and inhibit osteoclast differentiation
same,bone density,"[3]; LPS or LPS+ eupatilin, FIGS. 7B to 7E",improve bone density
same,expression of Pit,"[4]; dentin, FIG. 6B",reduced
same,expression of F-actin for the formation of osteoclast actin rings,"[4]; osteoclasts differentiated by RANK signaling, FIG. 6A",remarkably suppressed
same,expression of Cathepsin K,"[4]; time-dependent manner, FIG. 6",significantly decreasing
same,MNCs in the presence of eupatilin upon overexpression of GSK3b,[5],a significant quantity of MNCs was observed
same,bone density loss (CT),[6],significantly reduced
same,osteoclast differentiation,"[7]; 50 μM eupatilin, M-CSF and RANKL, FIG. 1A",completely suppressed
same,F-actin formation in MNCs (immunofluorescence),[7]; FIG. 1C,significantly reduced
same,formation of TRP^+ multinucleated osteoclasts (MNCs),"[7]; various concentrations, FIG. 1B",suppressed the formation of TRP^+ multinucleated osteoclasts (MNCs) in a dose-dependent manner
same,RANK-mediated NF-kB activation,[8],inhibit
same,"levels of the markers TRAP, OSCAR, Integrin av, DC-STAMP, integrin b3, and OC-STAMP",[9],significantly reduced
same,cytotoxicity,[10],no cytotoxicity
same,reduction of the activity of osteoblasts (ALP activity),[11]; 50 μM,50%
same,activity of osteoblasts (ALP activity),[11]; up to 25 μM,did not influence
